{"source": "paper PMC5380659", "about": "“Unique charge-dependent constraint on collagen recognition by integrin α10β1” (Matrix Biology, 2017)", "key": {"[1]": {"system": "human recombinant GST-α10-R215Q I-domain", "assay": "SPBA of α10-R215Q mutant I domain", "assay_type": "binding", "settings": "2 mM MgCl2, relative to wild type α10 I domain, Fig. 8F, Fig. 9", "text": "The I domain was first applied to the collagen II and III Toolkits in the presence or absence of Mg^2 +, detected using anti-GST as before, and data are shown in Fig. 9A and B. α10-R215Q I domain binding was Mg^2 +-dependent, reproducing the wild type Toolkit II data shown in Fig. 1A.\n(§1) pGEX-2T-α1, α2 and α10 I were used to generate the Q to R or R to Q mutations using QuikChange PCR kit from Stratagene (200518).\nTo express α2 wild type and mutant I domains, a 100-ml overnight culture of transformants (Origami strain) was used to inoculate 1 L of Luria broth containing 100 μg/ml ampicillin, 15 μg/ml Kanamycin and 12.5 μg/ml Tetracyclin. The culture was grown for 2 h at 37 °C and then induced at room temperature for 4 h with isopropyl β-D-thiogalactopyranoside (0.1 mM, Melford Laboratories, UK, #MB1008). Cells were harvested by centrifugation at 4500g for 20 min, and pellets for GST-fusion were resuspended in 10 ml Dulbecco's phosphate-buffered saline, containing 1 tablet of protease inhibitor cocktail (Roche) and 5 mg of lysozyme (Fluka). Suspensions were sonicated and Triton X-100 was added to 1% (v/v). Suspensions were mixed on a roller for 15 min at room temperature, then centrifuged at 18,000 × g for 20 min, and supernatants were pooled. […]\n(§2) I domain adhesion was determined colorimetrically, as described, here termed solid phase binding assay (SPBA). […]"}, "C2C12-α10β1 cells": {"system": "C2C12-α10β1 cells", "assay": "xCELLigence real-time adhesion of C2C12-α10β1 cells", "assay_type": "cell-based, mouse", "settings": "up to 1 h, compared with GPP10 negative control, Fig. 6C", "method": "Fig. 3 Binding of α10β1-transfected C2C12 cells to collagens and selected Toolkit peptides. Peptides or collagens were coated on ePlates as described, then cells were added in the presence of 2 mM Mg^2 + or EDTA, and Cell Index value was collected over 1 h. […] B: time courses are shown of adhesion to selected Toolkit peptides or GPP-10.\nTo quantitate C2C12-α10β1 binding to collagen peptides, we used the impedance-based xCELLigence system (Acea) that allows label-free, dynamic monitoring of cell adhesion in real-time. The assay system expresses the adhesion-dependent rise in well impedance in units of cell index (CI), defined as (Rn − Rb) / 15; where Rn is the electrical impedance of each cell-containing well and Rb is the background impedance of the well with medium alone\nBriefly, C2C12 cells were seeded at 2.5 × 10^4 cells/well in an E-plate (Roche Applied Science) pre-coated with peptides as for SPBA, and CI was measured for up to 2 h."}, "C2C12-α1β1 cells": {"system": "C2C12-α1β1 cells", "assay": "xCELLigence real-time adhesion of C2C12-α1β1 cells", "assay_type": "cell-based, mouse", "settings": "up to 1 h, compared to GFOGER, Fig. 6A"}, "C2C12-α2β1 cells": {"system": "C2C12-α2β1 cells", "assay": "xCELLigence real-time adhesion of C2C12-α2β1 cells", "assay_type": "cell-based, mouse", "settings": "up to 1 h, compared to GFOGER, Fig. 6B"}, "C2C12-α11β1 cells": {"system": "C2C12-α11β1 cells", "assay": "xCELLigence real-time adhesion of C2C12-α11β1 cells", "assay_type": "cell-based, mouse", "settings": "up to 1 h, compared to GFOGER, Fig. 6D"}, "α1-Q214R I domain": {"system": "α1-Q214R I domain", "assay": "SPBA of α1-Q214R mutant I domain", "assay_type": "binding, human", "settings": "Gln214 replaced with Arg, Fig. 8D", "text": "(§3) To test this hypothesis, we replaced the corresponding Q214 and Q215 in α1 and α2 I domains, respectively, with R, as in α10, and we replaced the R215 in the α10 I domain with Q, as in α1 and α2.\n(§4) Fig. 8 Arginine substitution of I domain surface reduces binding to Toolkit peptide III-4. Wild type I domain from α1, α2 and α10 were allowed to adhere to Toolkit peptide III-4 that contains GROGER, as described in Fig. 1, and binding is shown in A, B and C, respectively. In D and E, the natural glutamine residues of α1, Q214, and of α2, Q215, was replaced with arginine. In F, the natural arginine, R215, of α10 was replaced with glutamine.\nas §1\nI domain adhesion was determined colorimetrically, as described, here termed solid phase binding assay (SPBA). Peptides were coated at 10 μg/ml for 1 h at 22 °C on Immulon-2 HB 96-well plates (Thermo Life Sciences, Basingstoke, UK), and blocked for 1 h with 200 μl of TBS containing 50 mg/ml bovine serum albumin. Wells were washed four times with 200 μl of the adhesion buffer (TBS with 1 mg/ml bovine serum albumin) before adding 100 μl of adhesion buffer containing 10 μg/ml of recombinant GST I domains in the presence of either 2 mM MgCl2 or EDTA for 1 h at room temperature. […]"}, "α2-Q215R I domain": {"system": "α2-Q215R I domain", "assay": "SPBA of α2-Q215R mutant I domain", "assay_type": "binding, human", "settings": "Gln215 replaced with Arg, Fig. 8E", "text": "as §3, §4, §1\nTo express α2 wild type and mutant I domains, a 100-ml overnight culture of transformants (Origami strain) was used to inoculate 1 L of Luria broth containing 100 μg/ml ampicillin, 15 μg/ml Kanamycin and 12.5 μg/ml Tetracyclin. The culture was grown for 2 h at 37 °C and then induced at room temperature for 4 h with isopropyl β-D-thiogalactopyranoside (0.1 mM, Melford Laboratories, UK, #MB1008). […]\nas §2"}}, "note": "“Also recorded” adds a separate entry of the source."}
{"substance": "GROGER [short triple-helical peptide containing GROGER]", "values": [{"measurement": "Binding of α10-R215Q I domain", "setting": "[1]", "value": "restored binding; also recorded: better binding"}, {"measurement": "Cell adhesion to short THPs (time course)", "setting": "C2C12-α10β1 cells", "value": "poor binding; also recorded: of comparable level to the GPP10 negative control peptide"}, {"measurement": "Adhesion of C2C12-α1β1 cells to short THP (time course)", "setting": "C2C12-α1β1 cells", "value": "bound quite well"}, {"measurement": "Adhesion of C2C12-α2β1 cells to short THP (time course)", "setting": "C2C12-α2β1 cells", "value": "bound quite well"}, {"measurement": "Adhesion of C2C12-α11β1 cells to short THP (time course)", "setting": "C2C12-α11β1 cells", "value": "bound quite well"}, {"measurement": "Binding of α1-Q214R I domain", "setting": "α1-Q214R I domain", "value": "impaired their binding; also recorded: failed to bind; also recorded: collapse of binding"}, {"measurement": "Binding of α2-Q215R I domain", "setting": "α2-Q215R I domain", "value": "impaired their binding; also recorded: failed to bind; also recorded: collapse of binding"}]}
